Test system: peptide-specific IgG in plasma of prostate cancer patients and healthy donors
Assay: Detection of peptide-specific IgG in plasma by ELISA
Assay type: binding, human
Details: for IgG reactive to peptide in plasma: 1:100-diluted plasma
[1] = Prostate cancer patient 12, A11
[2] = Prostate cancer patient 20, A33
[3] = Prostate cancer patient 14, A33
[4] = Prostate cancer patient 17, A33
[5] = Prostate cancer patient 19, A33
[6] = Prostate cancer patient 16, A33
[7] = Prostate cancer patient 13, A11

Sequence: DLVYVNYAR (PSMA 173-181) [PSMA-derived peptide]
- IgG reactive to peptide in plasma, Total (positive/tested) (Healthy donors): 0/9
- IgG reactive to peptide in plasma (Prostate cancer patient 4, A31): + (IgG reactive to a corresponding peptide was judged to be positive when a difference of the optical density (OD) in a 1:100-diluted plasma was more than 100)
- IgG reactive to peptide in plasma (Prostate cancer patient 5, A31): + (IgG reactive to a corresponding peptide was judged to be positive when a difference of the optical density (OD) in a 1:100-diluted plasma was more than 100)
- IgG reactive to peptide in plasma (Prostate cancer patient 6, A31): + (IgG reactive to a corresponding peptide was judged to be positive when a difference of the optical density (OD) in a 1:100-diluted plasma was more than 100)
- IgG reactive to peptide in plasma [1]: + (IgG reactive to a corresponding peptide was judged to be positive when a difference of the optical density (OD) in a 1:100-diluted plasma was more than 100)
- IgG reactive to peptide in plasma [2]: + (IgG reactive to a corresponding peptide was judged to be positive when a difference of the optical density (OD) in a 1:100-diluted plasma was more than 100)
- IgG reactive to peptide in plasma, Total (positive/tested) (Prostate cancer patients): 5/20

Sequence: EYFVEMYYR (PAP 324-332) [PAP-derived peptide]
- IgG reactive to peptide in plasma, Total (positive/tested) (Healthy donors): 0/9
- IgG reactive to peptide in plasma [3]: + (IgG reactive to a corresponding peptide was judged to be positive when a difference of the optical density (OD) in a 1:100-diluted plasma was more than 100)
- IgG reactive to peptide in plasma, Total (positive/tested) (Prostate cancer patients): 1/20

Sequence: FIDPLGLPDR (PSMA 675-684) [PSMA-derived peptide]
- IgG reactive to peptide in plasma, Total (positive/tested) (Healthy donors): 0/9
- IgG reactive to peptide in plasma (Prostate cancer patient 2, A31): + (IgG reactive to a corresponding peptide was judged to be positive when a difference of the optical density (OD) in a 1:100-diluted plasma was more than 100)
- IgG reactive to peptide in plasma (Prostate cancer patient 4, A31): + (IgG reactive to a corresponding peptide was judged to be positive when a difference of the optical density (OD) in a 1:100-diluted plasma was more than 100)
- IgG reactive to peptide in plasma (Prostate cancer patient 5, A31): + (IgG reactive to a corresponding peptide was judged to be positive when a difference of the optical density (OD) in a 1:100-diluted plasma was more than 100)
- IgG reactive to peptide in plasma (Prostate cancer patient 6, A31): + (IgG reactive to a corresponding peptide was judged to be positive when a difference of the optical density (OD) in a 1:100-diluted plasma was more than 100)
- IgG reactive to peptide in plasma (Prostate cancer patient 8, A11): + (IgG reactive to a corresponding peptide was judged to be positive when a difference of the optical density (OD) in a 1:100-diluted plasma was more than 100)
- IgG reactive to peptide in plasma (Prostate cancer patient 9, A11): + (IgG reactive to a corresponding peptide was judged to be positive when a difference of the optical density (OD) in a 1:100-diluted plasma was more than 100)
- IgG reactive to peptide in plasma [1]: + (IgG reactive to a corresponding peptide was judged to be positive when a difference of the optical density (OD) in a 1:100-diluted plasma was more than 100)
- IgG reactive to peptide in plasma [4]: + (IgG reactive to a corresponding peptide was judged to be positive when a difference of the optical density (OD) in a 1:100-diluted plasma was more than 100)
- IgG reactive to peptide in plasma [5]: + (IgG reactive to a corresponding peptide was judged to be positive when a difference of the optical density (OD) in a 1:100-diluted plasma was more than 100)
- IgG reactive to peptide in plasma [2]: + (IgG reactive to a corresponding peptide was judged to be positive when a difference of the optical density (OD) in a 1:100-diluted plasma was more than 100)
- IgG reactive to peptide in plasma, Total (positive/tested) (Prostate cancer patients): 10/20

Sequence: FLLFFWLDR [PAP 20-28]
- IgG reactive to peptide in plasma, Total (positive/tested) (Healthy donors): 0/9
- IgG reactive to peptide in plasma [3]: + (IgG reactive to a corresponding peptide was judged to be positive when a difference of the optical density (OD) in a 1:100-diluted plasma was more than 100)
- IgG reactive to peptide in plasma, Total (positive/tested) (Prostate cancer patients): 1/20

Sequence: FQRLGIASGR (PSMA 525-534) [PSMA-derived peptide]
- IgG reactive to peptide in plasma, Total (positive/tested) (Healthy donors): 0/9
- IgG reactive to peptide in plasma (Prostate cancer patient 2, A31): + (IgG reactive to a corresponding peptide was judged to be positive when a difference of the optical density (OD) in a 1:100-diluted plasma was more than 100)
- IgG reactive to peptide in plasma (Prostate cancer patient 4, A31): + (IgG reactive to a corresponding peptide was judged to be positive when a difference of the optical density (OD) in a 1:100-diluted plasma was more than 100)
- IgG reactive to peptide in plasma (Prostate cancer patient 5, A31): + (IgG reactive to a corresponding peptide was judged to be positive when a difference of the optical density (OD) in a 1:100-diluted plasma was more than 100)
- IgG reactive to peptide in plasma (Prostate cancer patient 6, A31): + (IgG reactive to a corresponding peptide was judged to be positive when a difference of the optical density (OD) in a 1:100-diluted plasma was more than 100)
- IgG reactive to peptide in plasma (Prostate cancer patient 8, A11): + (IgG reactive to a corresponding peptide was judged to be positive when a difference of the optical density (OD) in a 1:100-diluted plasma was more than 100)
- IgG reactive to peptide in plasma (Prostate cancer patient 9, A11): + (IgG reactive to a corresponding peptide was judged to be positive when a difference of the optical density (OD) in a 1:100-diluted plasma was more than 100)
- IgG reactive to peptide in plasma [1]: + (IgG reactive to a corresponding peptide was judged to be positive when a difference of the optical density (OD) in a 1:100-diluted plasma was more than 100)
- IgG reactive to peptide in plasma [6]: + (IgG reactive to a corresponding peptide was judged to be positive when a difference of the optical density (OD) in a 1:100-diluted plasma was more than 100)
- IgG reactive to peptide in plasma [4]: + (IgG reactive to a corresponding peptide was judged to be positive when a difference of the optical density (OD) in a 1:100-diluted plasma was more than 100)
- IgG reactive to peptide in plasma [5]: + (IgG reactive to a corresponding peptide was judged to be positive when a difference of the optical density (OD) in a 1:100-diluted plasma was more than 100)
- IgG reactive to peptide in plasma [2]: + (IgG reactive to a corresponding peptide was judged to be positive when a difference of the optical density (OD) in a 1:100-diluted plasma was more than 100)
- IgG reactive to peptide in plasma, Total (positive/tested) (Prostate cancer patients): 11/20

Sequence: GLPDRPFYR [PSMA 680-688]
- IgG reactive to peptide in plasma, Total (positive/tested) (Healthy donors): 0/9
- IgG reactive to peptide in plasma (Prostate cancer patient 2, A31): + (IgG reactive to a corresponding peptide was judged to be positive when a difference of the optical density (OD) in a 1:100-diluted plasma was more than 100)
- IgG reactive to peptide in plasma (Prostate cancer patient 4, A31): + (IgG reactive to a corresponding peptide was judged to be positive when a difference of the optical density (OD) in a 1:100-diluted plasma was more than 100)
- IgG reactive to peptide in plasma (Prostate cancer patient 6, A31): + (IgG reactive to a corresponding peptide was judged to be positive when a difference of the optical density (OD) in a 1:100-diluted plasma was more than 100)
- IgG reactive to peptide in plasma (Prostate cancer patient 7, A11): + (IgG reactive to a corresponding peptide was judged to be positive when a difference of the optical density (OD) in a 1:100-diluted plasma was more than 100)
- IgG reactive to peptide in plasma (Prostate cancer patient 8, A11): + (IgG reactive to a corresponding peptide was judged to be positive when a difference of the optical density (OD) in a 1:100-diluted plasma was more than 100)
- IgG reactive to peptide in plasma (Prostate cancer patient 9, A11): + (IgG reactive to a corresponding peptide was judged to be positive when a difference of the optical density (OD) in a 1:100-diluted plasma was more than 100)
- IgG reactive to peptide in plasma (Prostate cancer patient 10, A11): + (IgG reactive to a corresponding peptide was judged to be positive when a difference of the optical density (OD) in a 1:100-diluted plasma was more than 100)
- IgG reactive to peptide in plasma [1]: + (IgG reactive to a corresponding peptide was judged to be positive when a difference of the optical density (OD) in a 1:100-diluted plasma was more than 100)
- IgG reactive to peptide in plasma [7]: + (IgG reactive to a corresponding peptide was judged to be positive when a difference of the optical density (OD) in a 1:100-diluted plasma was more than 100)
- IgG reactive to peptide in plasma [3]: + (IgG reactive to a corresponding peptide was judged to be positive when a difference of the optical density (OD) in a 1:100-diluted plasma was more than 100)
- IgG reactive to peptide in plasma [2]: + (IgG reactive to a corresponding peptide was judged to be positive when a difference of the optical density (OD) in a 1:100-diluted plasma was more than 100)
- IgG reactive to peptide in plasma, Total (positive/tested) (Prostate cancer patients): 12/20

Sequence: HIHSTNEVTR (PSMA 345-354) [PSMA-derived peptide]
- IgG reactive to peptide in plasma, Total (positive/tested) (Healthy donors): 0/9
- IgG reactive to peptide in plasma (Prostate cancer patient 2, A31): + (IgG reactive to a corresponding peptide was judged to be positive when a difference of the optical density (OD) in a 1:100-diluted plasma was more than 100)
- IgG reactive to peptide in plasma (Prostate cancer patient 4, A31): + (IgG reactive to a corresponding peptide was judged to be positive when a difference of the optical density (OD) in a 1:100-diluted plasma was more than 100)
- IgG reactive to peptide in plasma (Prostate cancer patient 5, A31): + (IgG reactive to a corresponding peptide was judged to be positive when a difference of the optical density (OD) in a 1:100-diluted plasma was more than 100)
- IgG reactive to peptide in plasma (Prostate cancer patient 6, A31): + (IgG reactive to a corresponding peptide was judged to be positive when a difference of the optical density (OD) in a 1:100-diluted plasma was more than 100)
- IgG reactive to peptide in plasma (Prostate cancer patient 9, A11): + (IgG reactive to a corresponding peptide was judged to be positive when a difference of the optical density (OD) in a 1:100-diluted plasma was more than 100)
- IgG reactive to peptide in plasma [1]: + (IgG reactive to a corresponding peptide was judged to be positive when a difference of the optical density (OD) in a 1:100-diluted plasma was more than 100)
- IgG reactive to peptide in plasma [7]: + (IgG reactive to a corresponding peptide was judged to be positive when a difference of the optical density (OD) in a 1:100-diluted plasma was more than 100)
- IgG reactive to peptide in plasma [6]: + (IgG reactive to a corresponding peptide was judged to be positive when a difference of the optical density (OD) in a 1:100-diluted plasma was more than 100)
- IgG reactive to peptide in plasma [4]: + (IgG reactive to a corresponding peptide was judged to be positive when a difference of the optical density (OD) in a 1:100-diluted plasma was more than 100)
- IgG reactive to peptide in plasma [5]: + (IgG reactive to a corresponding peptide was judged to be positive when a difference of the optical density (OD) in a 1:100-diluted plasma was more than 100)
- IgG reactive to peptide in plasma [2]: + (IgG reactive to a corresponding peptide was judged to be positive when a difference of the optical density (OD) in a 1:100-diluted plasma was more than 100)
- IgG reactive to peptide in plasma, Total (positive/tested) (Prostate cancer patients): 11/20

From US20100184699A1, “Peptide Derived From Prostate-Related Protein As Cancer Vaccine Candidate For Prostate Cancer Patient Who Is Positive For Hla-A3 Super-Type Allele Molecule” (priority 2005, published 2010)
